Data: PMC10469688, “Comparative pharmacokinetics and safety evaluation of high dosage regimens of Andrographis paniculata aqueous extract after single and multiple oral administration in healthy participants” (Frontiers in Pharmacology, 2023)
Read-outs that look alike come from different tables or passages of the source.

Key:
[1] = Plasma pharmacokinetics after single and multiple oral administration of A. paniculata aqueous extract capsules in healthy participants (HPLC-MS/MS, non-compartmental analysis); type: in vivo, human; parameters: MRT: unit: h; Cmax: unit: ng/mL
Experimental: (§1) An opened-label, two-dosage, single- and multiple-oral dosing, single center, phase I safety and pharmacokinetic study was conducted in healthy participants while they were under a fasting condition. […] Two weeks prior to the beginning of the clinical study, the volunteers were advised to abstain from other dietary supplements, herbal products, or any concomitant medicines. During the period of the study, no other medications were allowed. All participants fasted overnight for at least 8 h before drug administration. The study conducted a single-dose investigation on day 1 by oral administering A. paniculata extract capsules once in both groups. Twelve participants in group 1 received 3 capsules orally (equivalent to 60 mg of andrographolide) with 240 mL of water, while another twelve participants in group 2 received 6 capsules (equivalent to 120 mg of andrographolide). This was followed by serial blood sampling for up to 24 h after dosing. For blood collection, 6 mL of venous blood in EDTA tube was collected via a forearm vein catheter at each time point including pre-dose (0 h), and post-dose after oral administration (T 0.167, 0.333, 0.5, 0.75, 1, 1.5, 2, 4, 6, 8, 10, 12 and 24 h). Subsequently, observation of elimination continued until 48 h post-dose to ensure complete excretion of the major active diterpenoids through urine. Urine samples were collected at day 0 (the day prior to dosing) and day 1–2 (T 0–4, 4–8, 8–12,12–24, 24–32, 32–40, and 40–48 h after dosing). The study then proceeded to investigate multiple doses in both groups by administering continuous oral doses from day 3 until the morning of day 5. (dosing at T48, 56, 64, 72, 80, 88, and 96 h). In group 1, three capsules were administered orally before meals, three times a day (3 × 3 capsules at 8-h intervals, calculated as 180 mg/day of andrographolide); whereas in group 2, six capsules were administered daily, three times a day (6 × 3 capsules at 8-h intervals, calculated as 360 mg/day of andrographolide). For serial blood sampling of multiple doses, 6 mL of blood samples were collected starting in the morning of day 5 (sampling timepoints T 96, 96.167, 96.333, 96.5, 96.75, 97, 97.5, 98, 100, 102, and 104 h post dose).
(§2) All collected blood samples were centrifuged at 4,000 rpm, 4^οC, for 5 min. Plasma was collected and stored in cryotubes at −70^οC until analysis. Urine was kept as 10 mL aliquot samples at each time point and stored at −70^οC until analysis. Extraction was performed by protein precipitation method as previously reported ([Songvut et al., 2023]). Briefly, 50 µL of either a plasma or urine sample was mixed with 200 µL of methanol containing an internal standard (IS) of digoxin (50 ng/mL). Pretreated samples were vortexed for 10 min and were then centrifuged at 12,000 rpm, 4°C, for 10 min. The supernatants were filtered through a 0.2 µm PVDF membrane and were subsequently transferred to vials for HPLC-MS/MS analysis.
(§3) Hydrolysis of the glucuronidated and sulfated conjugates was conducted by enzymatic incubation as our previous published method ([Songvut et al., 2023]). To analyze the metabolic conjugations, 50 μL of either a plasma or urine sample was pre-incubated at 37^οC with 50 µL of either of β-glucuronidase in sodium phosphate buffer (pH 6.8) for 30 min, or sulfatase in sodium acetate buffer (pH 5) for 2 h. IS (50 ng/mL) was then added along with 150 μL of methanol to precipitate protein. The extracted samples were then vortexed and centrifuged at 12,000 rpm, 4^οC, for 10 min. The supernatants were collected by filtering through a 0.2-µm PVDF membrane before HPLC-MS/MS injection.
(§4) Analysis for the concentrations of targeted compounds in plasma and urine samples were carried out using HPLC-MS/MS at the Laboratory of Pharmacology, Chulabhorn Research Institute, Bangkok, Thailand. The quantitative determination was performed according to a previously validated method ([Songvut et al., 2023]). […]

[2] = Cumulative urinary excretion after single oral administration of A. paniculata aqueous extract capsules in healthy participants; type: in vivo, human; settings: urine T 0–48 h
Experimental: as §1, §2, §3, §4

[3] = multiple oral doses 60 mg × 3 times/day of andrographolide, n = 12, mean ± SD
[4] = multiple oral doses 60 mg × 3 times/day of andrographolide, n = 12, median [IQR]
[5] = multiple oral doses 120 mg × 3 times/day of andrographolide, n = 11, mean ± SD
[6] = multiple oral doses 120 mg × 3 times/day of andrographolide, n = 11, median [IQR]
[7] = single oral dose equivalent to 60 mg andrographolide, n = 12, mean ± SD
[8] = single oral dose equivalent to 60 mg andrographolide, n = 12, median [IQR]
[9] = single oral dose equivalent to 120 mg andrographolide, n = 11, mean ± SD
[10] = single oral dose equivalent to 120 mg andrographolide, n = 11, median [IQR]

Compound: C=C1CCC2C(C)(CO)C(O)CCC2(C)C1C=CC1=CCOC1=O (stereo not shown) [14-Deoxy-11,12-didehydroandrographolide, 14-deoxy-11, 12-didehydroandrographolide]
- AUC(0–8h) [1, 3]: 329 ± 55.5 ng·h/mL
- Cl/F [1, 3]: 16.3 ± 3.83 mL/min/kg
- MRT [1, 3]: 3.0 ± 0.61 h
- Vd/F [1, 3]: 2.6 ± 1.8 L/kg
- Half life [1, 4]: 1.6[0.80] h
- Tmax [1, 4]: 1.0[0.20] h
- Cmax ([1]; multiple oral doses 60 mg × 3 times/day of andrographolide, plasma T 0–8 h, n = 12, mean ± SD): 137 ± 29.3 ng/mL
- AUC(0–8h) [1, 5]: 693 ± 165 ng·h/mL
- Cl/F [1, 5]: 14.2 ± 2.33 mL/min/kg
- MRT [1, 5]: 4.5 ± 1.2 h
- Vd/F [1, 5]: 4.4 ± 2.0 L/kg
- Half life [1, 6]: 3.0[1.5] h
- Tmax [1, 6]: 1.0[0.33] h
- Cmax ([1]; multiple oral doses 120 mg × 3 times/day of andrographolide, plasma T 0–8 h, n = 11, mean ± SD): 237 ± 41.4 ng/mL
- AUC(0-inf) [1, 7]: 328 ± 102 ng·h/mL
- AUC(0–24h) [1, 7]: 328 ± 102 ng·h/mL
- Cl/F [1, 7]: 18.3 ± 4.5 mL/min/kg
- MRT [1, 7]: 4.3 ± 0.44 h
- Vd/F [1, 7]: 2.1 ± 0.60 L/kg
- Half life [1, 8]: 1.4[0.07] h
- Tmax [1, 8]: 1.0[0.33] h
- Cmax ([1]; single oral dose equivalent to 60 mg andrographolide, plasma T 0–24 h, n = 12, mean ± SD): 98.6 ± 40.3 ng/mL
- AUC(0-inf) [1, 9]: 674 ± 274 ng·h/mL
- AUC(0–24h) [1, 9]: 674 ± 274 ng·h/mL
- Cl/F [1, 9]: 18.3 ± 6 mL/min/kg
- MRT [1, 9]: 4.1 ± 0.65 h
- Vd/F [1, 9]: 2.0 ± 0.69 L/kg
- Half life [1, 10]: 1.2[0.06] h
- Tmax [1, 10]: 1.5[0.25] h
- Cmax ([1]; single oral dose equivalent to 120 mg andrographolide, plasma T 0–24 h, n = 11, mean ± SD): 211 ± 138 ng/mL
- Cumulative urine [2, 7]: 70.6 ± 27.6 µg
- Cumulative urine [2, 9]: 159 ± 56.8 µg

Compound: C=C1CC[C@@H]2[C@](C)(CO)[C@H](O)CC[C@@]2(C)[C@@H]1CCC1=CCOC1=O [14-Deoxyandrographolide, 14-deoxyandrographolide]
- CL/F ([1]; human, plasma, multiple oral doses 60 mg × 3 times/day of andrographolide, n = 12, mean ± SD): 255 mL/min/kg
- AUC(0-t) ([1]; human, plasma, multiple oral doses 60 mg × 3 times/day of andrographolide, n = 12, mean ± SD, read-out: AUC(0–8h)): 11.3 ± 3.3 ng·h/mL
- MRT ([1]; human, plasma, multiple oral doses 60 mg × 3 times/day of andrographolide, n = 12, mean ± SD, read-out: MRT): 1.5 ± 0.11 h
- Vd/F ([1]; human, plasma, multiple oral doses 60 mg × 3 times/day of andrographolide, n = 12, mean ± SD, read-out: Vd/F): 5.4 ± 3.1 L/kg
- half-life ([1]; human, plasma, multiple oral doses 60 mg × 3 times/day of andrographolide, n = 12, median [IQR]): 0.23 h
- Tmax ([1]; human, plasma, multiple oral doses 60 mg × 3 times/day of andrographolide, n = 12, median [IQR], read-out: Tmax): 1 h
- CL/F ([1]; human, plasma, multiple oral doses 120 mg × 3 times/day of andrographolide, n = 11, mean ± SD): 302 mL/min/kg
- AUC(0-t) ([1]; human, plasma, multiple oral doses 120 mg × 3 times/day of andrographolide, n = 11, mean ± SD, read-out: AUC(0–8h)): 20 ± 9.1 ng·h/mL
- MRT ([1]; human, plasma, multiple oral doses 120 mg × 3 times/day of andrographolide, n = 11, mean ± SD, read-out: MRT): 1.6 ± 0.07 h
- Vd/F ([1]; human, plasma, multiple oral doses 120 mg × 3 times/day of andrographolide, n = 11, mean ± SD, read-out: Vd/F): 5.7 ± 2.8 L/kg
- half-life ([1]; human, plasma, multiple oral doses 120 mg × 3 times/day of andrographolide, n = 11, median [IQR]): 0.21 h
- Tmax ([1]; human, plasma, multiple oral doses 120 mg × 3 times/day of andrographolide, n = 11, median [IQR], read-out: Tmax): 1 h
- Tmax ([1]; human, plasma, single oral dose equivalent to 60 mg andrographolide, n = 12, median [IQR], read-out: Tmax): 1 h
- CL/F ([1]; human, plasma, single oral dose equivalent to 120 mg andrographolide, n = 11, mean ± SD): 293 mL/min/kg
- AUC(0-inf) ([1]; human, plasma, single oral dose equivalent to 120 mg andrographolide, n = 11, mean ± SD, read-out: AUC(0-inf)): 20.5 ± 8.8 ng·h/mL
- AUC(0-t) ([1]; human, plasma, single oral dose equivalent to 120 mg andrographolide, n = 11, mean ± SD, read-out: AUC(0–24h)): 20.5 ± 8.8 ng·h/mL
- MRT ([1]; human, plasma, single oral dose equivalent to 120 mg andrographolide, n = 11, mean ± SD, read-out: MRT): 1.5 ± 0.08 h
- Vd/F ([1]; human, plasma, single oral dose equivalent to 120 mg andrographolide, n = 11, mean ± SD, read-out: Vd/F): 5.5 ± 2.9 L/kg
- half-life ([1]; human, plasma, single oral dose equivalent to 120 mg andrographolide, n = 11, median [IQR]): 0.21 h
- Tmax ([1]; human, plasma, single oral dose equivalent to 120 mg andrographolide, n = 11, median [IQR], read-out: Tmax): 1 h
- Cmax ([1]; human, multiple oral doses 60 mg × 3 times/day of andrographolide, plasma T 0–8 h, n = 12, mean ± SD, read-out: Cmax): 6.6 ± 1.9 ng/mL
- Cmax ([1]; human, multiple oral doses 120 mg × 3 times/day of andrographolide, plasma T 0–8 h, n = 11, mean ± SD, read-out: Cmax): 11.3 ± 5.5 ng/mL
- Cmax ([1]; human, single oral dose equivalent to 60 mg andrographolide, plasma T 0–24 h, n = 12, mean ± SD, read-out: Cmax): 4.2 ± 3.4 ng/mL
- Cmax ([1]; human, single oral dose equivalent to 120 mg andrographolide, plasma T 0–24 h, n = 11, mean ± SD, read-out: Cmax): 11.6 ± 5.4 ng/mL
- Cumulative urine [2, 7]: 108 ± 36.5 µg
- Cumulative urine [2, 9]: 199 ± 77.3 µg
